From publication PMC7179312 (Antimicrobial Agents and Chemotherapy, 2020)

Columns and labels:
[1] = tested on: P. aeruginosa PAM1154 carrying pUCP24 vector (PAM4175); assay: MIC, CLSI broth microdilution; assay type: cell-based; conditions: Pseudomonas aeruginosa, drug alone
Description: The effects of KPC mutations on resistance to various antibiotics were investigated. For these studies, pUCP24 plasmids carrying wild-type and mutant blaKPC-2 genes as well as the pUCP24 vector were transformed into PAM1154, an efflux-deficient strain of Pseudomonas aeruginosa. In this host, the effect of β-lactamases on β-lactam MIC is amplified due to the slowed uptake of β-lactams across the low-permeability outer membrane without interference by efflux of either β-lactams or BLIs. Consequently, this host allows detection of β-lactamase activity (as an MIC increase) of low-catalytic-efficiency enzymes that rely heavily on the low permeability of the outer membrane. Using the strain that lacks efflux pumps ensures no interference from efflux in interpreting results. We next evaluated the steady-state protein expression levels in bacterial cells. […] The observed discrepancy with our results could be attributed to the difference in either the expression vector or host bacteria.
(§1) For microbiological studies, wild-type blaKPC-2 and its mutant variants were cloned into the shuttle vector pUCP24. Resulting plasmids were transformed in the efflux-deficient strain of P. aeruginosa PAM1154 using selection on 15 μg/ml of gentamicin. Using a strain of P. aeruginosa as opposed to E. coli as a host for various cloned genes was based on the following consideration. As well documented elsewhere ([41]), P. aeruginosa has a low-permeability outer membrane; consequently, the effect of β-lactamases on MIC is amplified in P. aeruginosa compared to that in E. coli due to the slowed uptake of β-lactams. Thus, this host is appropriate to detect β-lactamase activity (as an MIC increase) of low-catalytic-efficiency enzymes that rely heavily on low permeability of the outer membrane. […] MICs were determined using the Clinical and Laboratory Standards Institute (CLSI) broth microdilution method as described in CLSI document M07-A11 ([42]). Potentiation of antibiotic activity by various BLIs in bacterial strains carrying wild-type (WT) and mutant KPC-2 genes was performed using standard checkerboard methodology ([43]). BLI potency was defined as PV50 (PV, potentiation value). PV50 is the minimal concentration of a BLI that is required to reduce the antibiotic MIC to the middle of the MIC range (E50) where the highest MIC is the MIC for a KPC-producing strain with no inhibitor added and the lowest MIC is the MIC for the vector-only strain, corresponding to the complete inhibition of KPC. E50 is calculated as the square root of the product of the antibiotic MICs for the KPC-producing and the vector-only strains.

[2] = tested on: P. aeruginosa PAM1154 carrying pUCP24-KPC-2 (PAM4135); assay: MIC, CLSI broth microdilution; assay type: cell-based; conditions: Pseudomonas aeruginosa; PAM4135, pUCP24-KPC-2; drug alone
Description: (§2) The effects of KPC mutations on resistance to various antibiotics were investigated. For these studies, pUCP24 plasmids carrying wild-type and mutant blaKPC-2 genes as well as the pUCP24 vector were transformed into PAM1154, an efflux-deficient strain of Pseudomonas aeruginosa. In this host, the effect of β-lactamases on β-lactam MIC is amplified due to the slowed uptake of β-lactams across the low-permeability outer membrane without interference by efflux of either β-lactams or BLIs. Consequently, this host allows detection of β-lactamase activity (as an MIC increase) of low-catalytic-efficiency enzymes that rely heavily on the low permeability of the outer membrane. Using the strain that lacks efflux pumps ensures no interference from efflux in interpreting results. We next evaluated the steady-state protein expression levels in bacterial cells.
as §1, with “Potentiation of antibiotic activity by various BLIs in bacterial strains carrying wild-type (WT) and mutant KPC-2 genes was performed using standard checkerboard methodology ([43]).” left out

[3] = tested on: P. aeruginosa PAM1154 carrying pUCP24-KPC-2::L169P (PAM4751); assay: MIC, CLSI broth microdilution; assay type: cell-based, Pseudomonas aeruginosa; conditions: for MIC: Pseudomonas aeruginosa, PAM4751, pUCP24-KPC-2::L169P, drug alone
Description: as §2
as §1, with “Potentiation of antibiotic activity by various BLIs in bacterial strains carrying wild-type (WT) and mutant KPC-2 genes was performed using standard checkerboard methodology ([43]).” left out

[4] = tested on: P. aeruginosa PAM1154 carrying pUCP24-KPC-2::D179Y (PAM4639); assay: MIC, CLSI broth microdilution; assay type: cell-based, Pseudomonas aeruginosa; conditions: for MIC: Pseudomonas aeruginosa, PAM4639, pUCP24-KPC-2::D179Y, drug alone
Description: as §2
as §1, with “Potentiation of antibiotic activity by various BLIs in bacterial strains carrying wild-type (WT) and mutant KPC-2 genes was performed using standard checkerboard methodology ([43]).” left out

[5] = tested on: CC(C)(O/N=C(\C(=O)N[C@@H]1C(=O)N2C(C(=O)[O-])=C(C[n+]3ccccc3)CS[C@H]12)c1csc(N)n1)C(=O)O; assay: purified protein, by the assay type; assay type: biochemical; conditions: other: substrate hydrolysis by purified KPC-2; pH 7.0; 37.0 °C
KPC-2 D179Y = target: T1, KPC-2 D179Y (Klebsiella pneumoniae, UniProt Q9F663, D178Y); assay: Kinetics of nitrocefin and ceftazidime hydrolysis by purified enzyme; assay type: biochemical
T1 construct: 6xHis (C); made in house; host or cells: E. coli BL21(DE3) pLys, pET28a
Experimental: (§3) Enzymes were mixed with various concentrations of nitrocefin in 50 mM sodium phosphate (pH 7.0)–0.1 mg/ml of bovine serum albumin (buffer A), and substrate cleavage was monitored at 490 nm every 10 s for 10 min at 37°C on a SpectraMax plate reader (Molecular Devices, San Jose, CA). Initial rates of nitrocefin cleavage were calculated and used to obtain Km and kcat values with Prism software (GraphPad, San Diego, CA).
(§4) Substrate cleavage was monitored at 260 nm every 30 s at room temperature using a SpectraMax plate reader. The reaction was monitored until OD260 values reached a plateau. Resulting OD260 versus time reaction profiles were fitted to the following equation using Prism software: At = A∞ + (A0 − A∞) × e^−k×t, where At is absorbance at time t, A0 is initial absorbance, and A∞ is final absorbance. In this equation, k = kcat/Km × [E], which allows calculatation of kcat/Km knowing the enzyme concentration ([44]).

KPC-2 = target: T2, KPC-2 (Klebsiella pneumoniae, UniProt Q9F663); assay: as above; assay type: biochemical; conditions: substrate hydrolysis by purified KPC-2
T2 construct: 6xHis (C); made in house; host or cells: E. coli BL21(DE3) pLys, pET28a
Experimental: as §3, §4

KPC-2 L169P = target: T3, KPC-2 L169P (Klebsiella pneumoniae, UniProt Q9F663, L168P); assay: as above; assay type: biochemical
T3 construct: 6xHis (C); made in house; host or cells: E. coli (pET28a construct; BL21(DE3) pLys is named only for wild type and D179Y)
Experimental: as §3, §4

[6] = tested on: P. aeruginosa PAM1154 carrying pUCP24 vector (PAM4175); assay: Checkerboard potentiation of antibiotic activity by BLIs; assay type: cell-based, Pseudomonas aeruginosa
Description: BLI potency was defined as PV50 (PV, potentiation value) of antibiotic potentiation. PV50 is the concentration of a BLI that is required to reduce the antibiotic MIC to the middle of the MIC range where the highest MIC is the MIC for a KPC-producing strain with no inhibitor added and the lowest MIC is the MIC for the vector-alone strain, which corresponds to complete inhibition of KPC. As a given MIC is directly related to the β-lactamase activity, PV50 might be considered the concentration of a BLI that is required to achieve half-effect of inhibition of β-lactamase activity (in whole cells) to hydrolyze an antibiotic of interest. […] However, the accurate determination of PV50 requires the MIC range to be relatively wide.
as §1, with “Potentiation of antibiotic activity by various BLIs in bacterial strains carrying wild-type (WT) and mutant KPC-2 genes was performed using standard checkerboard methodology ([43]).” left out
7 MIC range between the MIC of the beta-lactamase producing strain and the MIC of the vector only strain. The middle point is calculated as the square root of the product of the
8 antibiotic MIC values for the beta-lactamas e-producing and the vector onl y strain.

[7] = substrate hydrolysis by purified KPC-2 D179Y
[8] = substrate hydrolysis by purified KPC-2 L169P

With `C[C@@H](O)[C@H]1C(=O)N2C(C(=O)O)=C(S[C@@H]3CN[C@H](C(=O)N(C)C)C3)[C@H](C)[C@H]12` [Meropenem, meropenem] the MIC [1] was 0.125 µg/mL, the MIC [2] was 64 µg/mL and the “reduction of MIC vs wild-type KPC-2 strain” value ([3]; L169P strain) was 64 fold. For the same molecule, the MIC [3] was 1 µg/mL, the “increase of MIC vs vector-only strain” value ([3]; {}) was 8-16 fold and the “reduction of MIC vs wild-type KPC-2 strain” value ([4]; D179Y strain) was 64 fold. For the same molecule, the MIC [4] was 1 µg/mL and the “increase of MIC vs vector-only strain” value ([4]; {}) was 8-16 fold.
With KPC-2 (Klebsiella pneumoniae) the kcat [5] was over 2.6 s⁻¹ and the kcat/Km [5] was 870 ± 110 M⁻¹ s⁻¹.
With `O=C(Cc1cccs1)N[C@@H]1C(=O)N2C(C(=O)O)=C(/C=C/c3ccc([N+](=O)[O-])cc3[N+](=O)[O-])CS[C@H]12` [Nitrocefin, nitrocefin] the “reduction of kcat vs wild-type KPC-2” value (KPC-2 D179Y; KPC-2 D179Y) was “approximately 6,000 fold”, the Km (KPC-2 D179Y; [7]) was 26 ± 12 µM and the kcat (KPC-2 D179Y; [7]) was 0.023 ± 0.002 s⁻¹. The Km (KPC-2) was 36 ± 5 µM, the kcat (KPC-2) was 132 ± 13 s⁻¹ and the “reduction of kcat vs wild-type KPC-2” value (KPC-2 L169P; KPC-2 L169P) was about 300 fold. The Km (KPC-2 L169P; [8]) was 40 ± 10 µM and the kcat (KPC-2 L169P; [8]) was 0.47 ± 0.04 s⁻¹.
With `CCN1CCN(C(=O)N[C@@H](C(=O)N[C@@H]2C(=O)N3[C@@H]2SC(C)(C)[C@@H]3C(=O)O)c2ccccc2)C(=O)C1=O` [Piperacillin, piperacillin] the “Beta-lactam MIC in the presence of BLI” value ([6]; avibactam 0 µg/ml) was 0.125 µg/mL, the “Beta-lactam MIC in the presence of BLI” value ([6]; avibactam 0.008 µg/ml) was 0.125 µg/mL and the “Beta-lactam MIC in the presence of BLI” value ([6]; avibactam 0.031 µg/ml) was 0.125 µg/mL. For the same molecule, the “Beta-lactam MIC in the presence of BLI” value ([6]; avibactam 0.06 µg/ml) was 0.125 µg/mL, the “Beta-lactam MIC in the presence of BLI” value ([6]; avibactam 0.5 µg/ml) was 0.125 µg/mL and the “Beta-lactam MIC in the presence of BLI” value ([6]; avibactam 64 µg/ml) was 0.03 µg/mL. The “Beta-lactam MIC in the presence of BLI” value ([6]; avibactam […]) was 0.125 µg/mL, the “Beta-lactam MIC in the presence of BLI” value ([6]; vaborbactam 0 µg/ml) was 0.125 µg/mL and the “Beta-lactam MIC in the presence of BLI” value ([6]; vaborbactam 0.008 µg/ml) was 0.125 µg/mL. For the same molecule, the “Beta-lactam MIC in the presence of BLI” value ([6]; vaborbactam 0.031 µg/ml) was 0.125 µg/mL, the “Beta-lactam MIC in the presence of BLI” value ([6]; vaborbactam 0.06 µg/ml) was 0.125 µg/mL and the “Beta-lactam MIC in the presence of BLI” value ([6]; vaborbactam 0.5 µg/ml) was 0.125 µg/mL. For the same molecule, the “Beta-lactam MIC in the presence of BLI” value ([6]; vaborbactam 1 µg/ml) was 0.125 µg/mL, the “Beta-lactam MIC in the presence of BLI” value ([6]; vaborbactam 2 µg/ml) was 0.125 µg/mL and the “Beta-lactam MIC in the presence of BLI” value ([6]; vaborbactam 4 µg/ml) was 0.125 µg/mL. For the same molecule, the “Beta-lactam MIC in the presence of BLI” value ([6]; vaborbactam 8 μg/ml) was 0.125 µg/mL, the “Beta-lactam MIC in the presence of BLI” value ([6]; vaborbactam 16 µg/ml) was 0.125 µg/mL and the “Beta-lactam MIC in the presence of BLI” value ([6]; vaborbactam […]) was 0.125 µg/mL. For the same molecule, the MIC [1] was 0.06 µg/mL.
`CC(C)(O/N=C(\C(=O)N[C@@H]1C(=O)N2C(C(=O)[O-])=C(C[n+]3ccccc3)CS[C@H]12)c1csc(N)n1)C(=O)O` [Ceftazidime, ceftazidime] was tested, and the “Antibiotic MIC, No BLI” value ([6]; no BLI) was 0.25 µg/mL, the MIC [1] was 0.25 µg/mL and the MIC [2] was 32 µg/mL. The MIC [3] was 256 µg/mL and the MIC [4] was 512 µg/mL.
Molecule `C[C@H]1[C@H](NC(=O)/C(=N\OC(C)(C)C(=O)O)c2csc(N)n2)C(=O)N1S(=O)(=O)O` [Aztreonam, aztreonam] has an MIC [1] of 0.125 µg/mL.
